Data on three molecules can be found in patent publication US10759740B2, “Antibacterial agents” (Rutgers, The State University of New Jersey, priority 2016, dated 2020).

For series [1], the system named is L. plantarum biofilm. The series can be described thus: Minimum biofilm bactericidal concentration (MBC-B). The format is cell-based, Lactobacillus plantarum. The note with it: pre-formed biofilm, ≥3 log reduction. As to the method:
(§1) G. vaginalis ATCC 14019 strain was grown overnight in Brain Heart Infusion broth (Difco, Sparks, Md.) supplemented with 3% horse serum (sBHI) (JRH Biosciences, KS), while BHI supplemented with 1% glucose (BHIG) was used for biofilm formation assays. Each experiment using G. vaginalis was performed anaerobically (10% hydrogen, 5% carbon dioxide, and 85% nitrogen) within anaerobic glove boxes (Coy Laboratory Products, Inc., Grass Lake, Mich., USA). Three species of vaginal Lactobacillus were used in this study to evaluate the possible harmful effects of CAms on beneficial bacteria: Lactobacillus plantarum ATCC 39268, Lactobacillus rhamnosus 160 (provided by Dr. Aroutcheva, Rush University Medical Center) and Lactobacillus gasseri ATCC 33323; all were grown for 18-24 h in DeMan, Rogosa and Sharpe broth (MRS Difco B D, Franklin Lakes, N.J., USA) under aerobic conditions at 37° C. For lactobacilli biofilm formation, MRS broth supplemented with 1% glucose and 2% sucrose (Fisher Scientific, Waltham, Mass., USA) was utilized.
(§2) This assay was performed according to Algburi et al. (Algburi et al., 2015. Path Dis 73(5)) with minor modifications: the overnight-grown G. vaginalis was diluted to approximately 10^7 CFU/ml. For the biofilm formation assay, aliquots of 200 μl were added into a 96-well tissue culture microplate, sealed by amplification tape (Nalge Nunc International, Rochester, N.Y., USA) and incubated for 24-36 h at 37° C. After incubation, the planktonic cells were removed by gently washing the biofilm twice with 200 μl of fresh broth. The biofilm was then treated with 200 μl of a predetermined concentration of the tested compound. The microplate was incubated for 24 h at 37° C. under anaerobic conditions. After incubation, the antimicrobials (supernatant) were discarded and the biofilm was washed twice with fresh BHIG broth. The biofilm was then disrupted by vigorous pipetting, in order to determine the number of biofilm-associated cells using the spot plate method.

Series [2] deals with L. gasseri biofilm. Briefly: Minimum biofilm bactericidal concentration (MBC-B). The format is cell-based, Lactobacillus gasseri. The note with it: pre-formed biofilm, ≥3 log reduction. The procedure: as §1, §2
Series [3] has as its system Human foreskin fibroblast (HFF) cells. Format: cell-based. To be noted: for IC50: Table 2 of Example 1, cytotoxicity IC50 of CAms. As to the method: HFFs were cultured in DMEM supplemented with 10% fetal bovine serum, 1% penicillin/streptomycin and plated at a concentration of 10,000 cells/well in 96-well plate. Plates were incubated at 37° C. and 5% CO2 for 24 h to allow cell attachment prior to use.
CAMs were tested for cytotoxicity against HFFs using a tetrazolium-based colorimetric assay (MTT). CAMs were first dissolved in ddH2O and then diluted in cell medium (DMEM supplemented with 1% penicillin/streptomycin) to reach concentrations of 15.6, 3.9, and 0.95 μg/mL. 100 μL cell media containing CAMs were then added to allocated wells in a 96-well plate. Cells treated with only 1% Triton X-100 and cell medium were used as positive and negative controls, respectively. After 24 h incubation, the medium was removed and replaced with fresh medium. 20 μL of MTT reagent (12 mM in PBS) was then added to each well and further incubated for 4 h at 37° C. Formazan crystals were subsequently dissolved in 100 μL acidified SDS solution at 37° C. for 4 h. […] The following is used to calculate the percent of cell viability of HFFs: […]

The subject of series [4] is Lactobacillus rhamnosus 160. Briefly: MIC broth microdilution (Example 3). Format: cell-based. To be noted: planktonic. As to the method: as §1
(§3) To prepare a stock solution, the CAm compounds were dissolved in ddH2O and incubated at 37° C. with shaking at 250 rpm for 10 min. Then, the solution was serially diluted twofold with sBHI broth to determine the MIC and with BHIG broth to identify the MIC-B/MBC-B against planktonic and biofilm cells, respectively.
(§4) According to Clinical and Laboratory Standards Institute (CLSI 2010), the MIC is defined as the lowest concentration of antimicrobial compound producing no visible growth or complete inhibition of bacterial growth during 24 h. To determine MIC values, the broth microdilution assay was performed according to Algburi et al. (Algburi et al., 2015. Path Dis 73(5)) with minor modifications. Briefly, the overnight-grown cells were diluted with their suitable culture medium to approach ˜10^6 CFU/ml. The number of bacterial cells was identified using spot plate method (Turovskiy et al., 2012. Infect Dis Obstet Gynecol 2012:284762). The CAms were serially diluted twofold with sBHI into a non-tissue culture 96-well microplate plate (Falcon, Corning Incorporated, Corning, N.Y., USA) resulting in a final volume of 100 μl for each well. Aliquots of 100 μl of the diluted cell suspension (˜10^6 CFU/ml) were added to each well of a microplate that was treated with different concentrations of CAms. To avoid culture medium evaporation, 75 μl of mineral oil (Sigma-Aldrich, St. Louis, Mo.) was added to each treated well. The microplate was then transferred to the plate reader (Model 550, Bio-Rad Laboratories, Hercules, Calif., USA) and incubated at 37° C. for 24-36 h. The kinetic reading was statistically analyzed, and the MIC and sub-MIC of each CAm compound were determined.
(In general: Dilution methods test growth across graded concentrations, often in twofold steps.)

The subject of series [5] is Lactobacillus plantarum ATCC 39268. The series can be described thus: MIC broth microdilution (Example 3). The format is cell-based. To be noted: planktonic. As to the method:
as §1, §3, §4

Series [6] concerns Lactobacillus gasseri ATCC 33323. Briefly: MIC broth microdilution (Example 3). To be noted: planktonic. Format: cell-based. The procedure: as §1, §3, §4
Series [7] concerns L. rhamnosus biofilm. The series can be described thus: Minimum biofilm bactericidal concentration (MBC-B). The format is cell-based, Lactobacillus rhamnosus. To be noted: pre-formed biofilm, ≥3 log reduction. The procedure:
as §1, §2

As for `CCCCCCCCCCOC(C(=O)NCCN)C(OCCCCCCCCCC)C(=O)NCCN.Cl.Cl` (centres unmarked) [5b], in series [1], the “MBC-B L. plantarum” value was over 850 µM. Besides, the “MBC-B L. gasseri” value in series [2] is over 850 µM. In addition, in series [3], the “cytotoxicity to human fibroblasts (MTT cell viability)” value is recorded as “did not produce pronounced cytotoxicity” and the IC50 – broadly, the point on the concentration scale where inhibition reaches its midpoint – is 5.6 µg/mL. Moreover, the “MIC L. rhamnosus” value in series [4] is 13.3 µM. Also, the “MIC L. plantarum” value in series [5] is 25.7 µM. Moreover, the “MIC L. gasseri” value in series [6] was determined as 4.4 µM. In addition, the “MBC-B L. rhamnosus” value in series [7] was over 850 µM.

As for `CCCCCCCC(=O)OC(C(=O)NCCN)C(OC(=O)CCCCCCC)C(=O)NCCN.Cl.Cl` (centres unmarked) [8a], the “MBC-B L. plantarum” value in series [1] is over 890 µM. The “MBC-B L. gasseri” value in series [2] was over 890 µM. Moreover, the IC50 in series [3] was 55.6 µg/mL. Also, the “MIC L. rhamnosus” value in series [4] turned out to be 111.6 µM. In addition, in series [5], the “MIC L. plantarum” value turned out to be 223 µM. Also, in series [6], the “MIC L. gasseri” value was 55.9 µM. For the same molecule, the “MBC-B L. rhamnosus” value in series [7] is over 890 µM.

Take `CCCCCCCCCC(=O)OC(C(=O)NCCN)C(OC(=O)CCCCCCCCC)C(=O)NCCN.Cl.Cl` (centres unmarked) [8b]: in series [1], the “MBC-B L. plantarum” value is over 810 µM. The “MBC-B L. gasseri” value in series [2] came out at 810 µM. Besides, in series [3], the “cytotoxicity to human fibroblasts (MTT cell viability)” value is listed as “did not produce pronounced cytotoxicity” and the IC50 was 13.9 µg/mL. The “MIC L. rhamnosus” value in series [4] worked out at 12.7 µM. The “MIC L. plantarum” value in series [5] worked out at 33.3 µM. Besides, in series [6], the “MIC L. gasseri” value was found to be 12.7 µM. In addition, the “MBC-B L. rhamnosus” value in series [7] was over 810 µM.
